# Data taken from patent publication US5711020A (priority 1996, dated 1998).
# Several values for one entry are separate records, joined by “and”; a condition that tells them apart may be missing. Equal values may be shown once. Read-outs that look alike come from different tables or passages of the source.
# Columns and labels:
# [1] = system: purified TNT-reducing agent
# [2] = not given; remark: listed apart in the source
# [3] = not given; remark: listed apart in the source
# nitrilase = assay type: biochemical
# TNT reducing enzyme = assay type: biochemical
compound,measurement,setting,value
O=[N+]([O-])c1ccccc1 [nitrobenzene],Half-life,[1],28 h
same,t1/2,bar-h sediment,0.35 h
same,t1/2,beaver dam sediment,2.37 h
same,t1/2,hickory hill sediment,2.37 h
same,t1/2,memorial park sediment,2 h
same,"kcorr, calculated maximum rate assuming a 10% analytical method error",[2]; pH 2.5,0.25 ± 0.025 10^4 m^-1
same,"kcorr, calculated maximum rate assuming a 10% analytical method error",[2]; pH 3.85,0.12 ± 0.012 10^4 m^-1
same,kcorr,[2]; pH 5.3,4.6 ± 0.24 10^4 m^-1
same,"kobs, observed first-order disappearance rate constant and standard deviation",[2]; pH 5.3,4.0 ± 0.21 10^-4 m^-1
same,kcorr,[2]; pH 7,4.2 ± 0.20 10^4 m^-1
same,"kobs, observed first-order disappearance rate constant and standard deviation",[2]; pH 7,3.8 ± 0.18 10^-4 m^-1
same,kcorr,[2]; pH 7.75,8.5 ± 0.77 10^4 m^-1
same,"kobs, observed first-order disappearance rate constant and standard deviation",[2]; pH 7.75,7.7 ± 0.70 10^-4 m^-1
same,kcorr,[2]; pH 9.15,9.3 ± 0.62 10^4 m^-1
same,"kobs, observed first-order disappearance rate constant and standard deviation",[2]; pH 9.15,8.6 ± 0.57 10^-4 m^-1
same,kcorr,[2]; pH 10.55,7.8 ± 1.2 10^4 m^-1
same,"kobs, observed first-order disappearance rate constant and standard deviation",[2]; pH 10.55,6.6 ± 1.0 10^-4 m^-1
"ClC(Cl)=C(Cl)Cl [PCE, tetrachloroethene]",Rate Constant k,[3]; pH 7.2,4.05E-05 min - 1
same,Half life,"[3]; vechten pond sediment, pH 7.2",285.5 h
same,Half-life,purified dehalogenase; 60 µM,3.33 h
same,Half-life,purified dehalogenase; 100 µM,10 h
"ClC(Cl)(Cl)C(Cl)(Cl)Cl [HCA, hexachloroethane]",Half life,"[3]; breukelveen sediment, pH 7.6",0.5 h
same,Half life,"[3]; dommel sediment, 0.0732 µM, pH 7.5",1.5 h
same,Half life,"[3]; loosdrechtse plassen sediment, 0.0732 µM, pH 7.7",9.5 h
same,Rate Constant k,[3]; pH 7.2,2.33E-03 min - 1
same,Rate Constant k,[3]; pH 7.5,7.62E-03 min - 1
same,Rate Constant k,[3]; pH 7.6,2.47E-02 min - 1
same,Rate Constant k,[3]; pH 7.7,1.22E-03 min - 1
same,Half life,"[3]; vechten pond sediment, pH 7.2",5.0 h
same,Half-life,purified dehalogenase; 30 µM,3.33 h
"ClC=C(Cl)Cl [TCE, trichloroethene]",Half-life,purified dehalogenase; 60 µM,3.33 h
"BrCCBr [1,2-Dibromoethane]",Rate Constant k,[3]; pH 7.2,7.13E-04 min - 1
same,Half life,"[3]; vechten pond sediment, pH 7.2",16.2 h
"BrC(Br)=C(Br)Br [PBE, tetrabromoethene]",Half-life,purified dehalogenase; 30 µM,18.33 h
Ic1ccccc1 [Iodobenzene],Rate Constant k,[3]; pH 7.2,2.55E-05 min - 1
same,Half life,"[3]; vechten pond sediment, pH 7.2",453.0 h
"ClC(Br)C(Cl)Br (stereo not drawn) [1,2-Dibromo-1,2-dichloroethane]",Rate Constant k,[3]; pH 7.2,5.44E-03 min - 1 and 4.54E-03 min - 1
ClC(Cl)(Cl)Cl [Carbontetrachloride],Half life,"[3]; breukelveen sediment, pH 7.6",10.0 h
same,Rate Constant k,[3]; pH 7.6,1.16E-03 min - 1
trypsin,effect on activity of the nitrilase,nitrilase,inhibited
same,effect on TNT-reducing activity,TNT reducing enzyme,no inhibition
chymotrypsin,effect on activity of the nitrilase,nitrilase,inhibited
same,effect on TNT-reducing activity,TNT reducing enzyme,no inhibition
IC(I)=C(I)I [Tetraiodoethene],Rate Constant k,[3]; pH 7.2,9.22E-02 min - 1
same,Half life,"[3]; vechten pond sediment, pH 7.2",0.1 h
